Results: ChEMBL document CHEMBL4627382, “Iheyamides A-C, Antitrypanosomal Linear Peptides Isolated from a Marine Dapis sp. Cyanobacterium” (J Nat Prod, 2020)

Key:
[1] = tested on: Trypanosoma brucei rhodesiense; test: Antitrypanosomal activity against Trypanosoma brucei rhodesiense IL-1501 incubated for 69 hrs by AlamarBlue assay; type: functional, organism-based; conditions: IL-1501, 69 h
[2] = tested on: Trypanosoma brucei brucei; test: Antitrypanosomal activity against Trypanosoma brucei brucei 221 incubated for 69 hrs by AlamarBlue assay; type: functional, organism-based; conditions: Trypanosoma brucei, 221, 69 h
[3] = tested on: WI-38; test: Cytotoxicity against human WI38 cells incubated for 72 hrs by MTT assay; type: cell-based; conditions: WI-38, 72 h
[4] = Selectivity ratio of IC50 for human WI38 cells to IC50 for Trypanosoma brucei rhodesiense IL-1501; type: toxicity; conditions: read-out: Ratio IC50
[5] = Selectivity ratio of IC50 for human WI38 cells to IC50 for Trypanosoma brucei brucei 221; type: toxicity; conditions: read-out: Ratio IC50

SMILES | IC50 [1] [µM] | IC50 [2] [µM] | IC50 [3] [µM] | selectivity ratio [4] | selectivity ratio [5]
CC[C@@H](C)[C@H](C(=O)O)N(C)C(=O)[C@@H]1CCCN1C(=O)[C@H](C(C)C)N(C)C(=O)[C@@H](Cc1ccccc1)NC(=O)[C@H](Cc1ccccc1)N(C)C | > 20 | > 20 | > 20 |  | 
CC[C@@H](C)[C@H](C(=O)N1CCC[C@H]1C(=O)N1C(=O)C=C(OC)[C@@H]1C(C)C)N(C)C(=O)[C@@H]1CCCN1C(=O)[C@H](C(C)C)N(C)C(=O)[C@@H](Cc1ccccc1)NC(=O)[C@H](Cc1ccccc1)N(C)C | 1.5 | 1.5 | 18 | > 10 | > 10
CC[C@@H](C)[C@H](C(=O)N1CCC[C@H]1C(=O)O)N(C)C(=O)[C@@H]1CCCN1C(=O)[C@H](C(C)C)N(C)C(=O)[C@@H](Cc1ccccc1)NC(=O)[C@H](Cc1ccccc1)N(C)C | > 20 | > 20 | > 20 |  | 
